Laboratory results reported in publication PMC4303209, “A novel phosphatidylinositol 3-kinase (PI3K) inhibitor directs a potent FOXO-dependent, p53-independent cell cycle arrest phenotype characterized by the differential induction of a subset of FOXO-regulated genes” (Breast Cancer Research : BCR, 2014).

System: MCF-7 breast cancer cells
Assay: Microarray gene expression analysis (Agilent whole human genome 4 x 44K; compound vs DMSO, LIMMA log2 fold change)
Assay type: cell-based
Conditions: cell cycle genes

Compound: Cn1ncc2c(N3CCOCC3)nc(-c3cccc(O)c3)nc21 [ETP-45658]
- STAT5A log2FC (Gene 6776): 0.569
- STAT5B log2FC (Gene 6777): 0.093
- AURKA log2FC (Gene 6790): 0.163
- STK10 log2FC (Gene 6793): -0.333
- AURKC log2FC (Gene 6795): 0.077
- SUV39H1 log2FC (Gene 6839): -0.686
- TACC1 log2FC (Gene 6867): 0.112
- ADAM17 log2FC (Gene 6868): 0.578
- TAF1 log2FC (Gene 6872): 0.237
- TAL1 log2FC (Gene 6886): -0.533
- TBX3 log2FC (Gene 6926): -0.702
- TCF3 log2FC (Gene 6929): -0.071
- DYNLT3 log2FC (Gene 6990): -0.257
- DYNLT1 log2FC (Gene 6993): 0.039
- TERF1 log2FC (Gene 7013): 0.607
- TERF2 log2FC (Gene 7014): -0.131
- TFAP4 log2FC (Gene 7023): 0.268
- NR2F2 log2FC (Gene 7026): 0.124
- TFDP1 log2FC (Gene 7027): -0.484
- TFDP2 log2FC (Gene 7029): 0.532
- TGFB1 log2FC (Gene 7040): -0.640
- THBS1 log2FC (Gene 7057): -0.941
- TNF log2FC (Gene 7124): -1.647
- TNFAIP3 log2FC (Gene 7128): -0.659
- TOP2A log2FC (Gene 7153): 0.987
- TOP2B log2FC (Gene 7155): 1.103
- TOP3A log2FC (Gene 7156): -0.181
- TP53 log2FC (Gene 7157): -0.193
- TP53BP2 log2FC (Gene 7159): 0.300
- TPR log2FC (Gene 7175): 0.896
- TSC1 log2FC (Gene 7248): 0.395
- TSC2 log2FC (Gene 7249): -0.413
- TSG101 log2FC (Gene 7251): 0.390
- TTK log2FC (Gene 7272): 1.754
- TUBG1 log2FC (Gene 7283): -0.283
- UBA52 log2FC (Gene 7311): 0.322
- UBB log2FC (Gene 7314): 0.069
- UBC log2FC (Gene 7316): 0.294
- UBE2B log2FC (Gene 7320): 0.582
- UBE2D1 log2FC (Gene 7321): 0.498
- UBE2E1 log2FC (Gene 7324): 0.262
- UBE2I log2FC (Gene 7329): -0.395
- WEE1 log2FC (Gene 7465): -0.074
- WNT5A log2FC (Gene 7474): 0.075
- WNT10B log2FC (Gene 7480): -0.451
- WNT9A log2FC (Gene 7483): 0.073
- XPC log2FC (Gene 7508): 0.604
- XRCC2 log2FC (Gene 7516): -0.596
- YWHAG log2FC (Gene 7532): -0.492
- ZNF16 log2FC (Gene 7564): 0.343
- ZBTB17 log2FC (Gene 7709): 0.065
- PTP4A1 log2FC (Gene 7803): -0.345
- EVI5 log2FC (Gene 7813): 0.609
- ALMS1 log2FC (Gene 7840): 0.617
- NR4A3 log2FC (Gene 8013): 0.735
- NUP214 log2FC (Gene 8021): -0.742
- FOSL1 log2FC (Gene 8061): -2.502
- CUL5 log2FC (Gene 8065): -0.432
- YEATS4 log2FC (Gene 8089): 1.304
- HMGA2 log2FC (Gene 8091): -1.656
- CHAF1B log2FC (Gene 8208): 0.083
- CLTCL1 log2FC (Gene 8218): -0.209
- USP9X log2FC (Gene 8239): 0.632
- SMC1A log2FC (Gene 8243): 0.142
- CDC7 log2FC (Gene 8317): 0.500
- RAD54L log2FC (Gene 8438): -0.289
- CUL4B log2FC (Gene 8450): 0.695
- CUL4A log2FC (Gene 8451): 0.552
- CUL1 log2FC (Gene 8454): 0.479
- KLF11 log2FC (Gene 8462): 1.337
- OFD1 log2FC (Gene 8481): 1.019
- PKP4 log2FC (Gene 8502): 0.170
- GAS7 log2FC (Gene 8522): -0.364
- DGKZ log2FC (Gene 8525): -0.549
- CAMK1 log2FC (Gene 8536): -0.088
- CDC14B log2FC (Gene 8555): 0.259
- CDK10 log2FC (Gene 8558): 0.167
- MADD log2FC (Gene 8567): 0.423
- DYNLL1 log2FC (Gene 8655): -0.944
- TNKS log2FC (Gene 8658): 0.686
- BECN1 log2FC (Gene 8678): 0.486
- CDC23 log2FC (Gene 8697): 0.451
- CRADD log2FC (Gene 8738): -0.101
- CCNK log2FC (Gene 8812): -0.603
- BANF1 log2FC (Gene 8815): -0.450
- CDK5R1 log2FC (Gene 8851): -0.154
- IER3 log2FC (Gene 8870): -1.789
- SPHK1 log2FC (Gene 8877): -0.334
- CDC16 log2FC (Gene 8881): 0.890
- CCNA1 log2FC (Gene 8900): 0.079
- TIMELESS log2FC (Gene 8914): 0.236
- PHOX2B log2FC (Gene 8929): -0.044
- MBD4 log2FC (Gene 8930): 0.489
- BTRC log2FC (Gene 8945): 0.108
- WASL log2FC (Gene 8976): 0.239
- RNF8 log2FC (Gene 9025): -0.050
- PRC1 log2FC (Gene 9055): 0.420
- USP2 log2FC (Gene 9099): -0.057
- USP8 log2FC (Gene 9101): 0.690
- SMC3 log2FC (Gene 9126): 1.332
- EXO1 log2FC (Gene 9156): 0.057
- ARHGEF2 log2FC (Gene 9181): -0.734
- ZW10 log2FC (Gene 9183): 0.473
- BUB3 log2FC (Gene 9184): 0.588
- NOLC1 log2FC (Gene 9221): -0.505
- CCPG1 log2FC (Gene 9236): 0.930
- MAPKAPK2 log2FC (Gene 9261): -0.374
- PIWIL1 log2FC (Gene 9271): 0.057
- RECQL5 log2FC (Gene 9400): 0.154
- ROCK2 log2FC (Gene 9475): 0.291
- PSMF1 log2FC (Gene 9491): -0.383
- VPS4B log2FC (Gene 9525): 0.614
- CLOCK log2FC (Gene 9575): 0.069
- MAD2L1BP log2FC (Gene 9587): -0.350
- ARHGEF10 log2FC (Gene 9639): 0.265
- MDC1 log2FC (Gene 9656): -0.639
- CEP135 log2FC (Gene 9662): 0.532
- KIAA0430 log2FC (Gene 9665): 0.757
- CROCC log2FC (Gene 9696): -0.051
- ESPL1 log2FC (Gene 9700): 0.453
- CEP57 log2FC (Gene 9702): 1.199
- UTP14C log2FC (Gene 9724): 0.374
- KNTC1 log2FC (Gene 9735): 0.636
- RASSF2 log2FC (Gene 9770): 0.675
- CKAP5 log2FC (Gene 9793): 0.439
- SFI1 log2FC (Gene 9814): -0.103
- RB1CC1 log2FC (Gene 9821): 1.457
- MELK log2FC (Gene 9833): 0.433
- GINS1 log2FC (Gene 9837): -0.673
- MAGI2 log2FC (Gene 9863): 0.425
- TLK1 log2FC (Gene 9874): 0.392
- POM121 log2FC (Gene 9883): -0.667
- KLHL21 log2FC (Gene 9903): 0.769
- DCLRE1A log2FC (Gene 9937): 0.710
- USP3 log2FC (Gene 9960): 0.530
- THOC1 log2FC (Gene 9984): 0.606
- DMTF1 log2FC (Gene 9988): 0.604
- CASP8AP2 log2FC (Gene 9994): 0.813
- PDCD6IP log2FC (Gene 10015): 0.516
- BCL2L11 log2FC (Gene 10018): 0.145
- CHAF1A log2FC (Gene 10036): -0.375
- PARP3 log2FC (Gene 10039): 0.325
- TOM1L1 log2FC (Gene 10040): 0.759
- SMC4 log2FC (Gene 10051): 0.902
- ACTR2 log2FC (Gene 10097): -0.298
- RAD50 log2FC (Gene 10111): 0.524
- KIF20A log2FC (Gene 10112): 0.476
- OPTN log2FC (Gene 10133): 0.838
- AKAP9 log2FC (Gene 10142): 1.382
- PSME3 log2FC (Gene 10197): -1.314
- MPHOSPH9 log2FC (Gene 10198): 0.470
- MPHOSPH6 log2FC (Gene 10200): -0.666
- MAEA log2FC (Gene 10296): -0.219
- PAK4 log2FC (Gene 10298): -0.601
- NPM2 log2FC (Gene 10361): -0.152
- HMG20B log2FC (Gene 10362): 0.276
- CITED2 log2FC (Gene 10370): 2.261
